Test results reported in ChEMBL document CHEMBL4715909, “Identification of Plasmodium falciparum heat shock 90 inhibitors via molecular docking” (Bioorg Med Chem Lett, 2021).

Legend:
[1] = test system: Plasmodium falciparum; assay: Antimalarial activity against Plasmodium falciparum 3D7 assessed as reduction in parasitic growth at 16 uM relative to control; format: functional; set-up: scale not given: the % may be the effect or the level left
[2] = test system: Plasmodium falciparum; assay: Antimalarial activity against Plasmodium falciparum 3D7 assessed as reduction in parasitic growth; format: functional, organism-based
[3] = test system: BJ; assay: Cytotoxicity against human BJ cells assessed as reduction in cell viability; format: cell-based
[4] = test system: BJ; assay: Cytotoxicity against human BJ cells assessed as reduction in cell viability at 58 uM by relative to control; format: cell-based

Row | SMILES | Activity [1] | EC50 [2] | EC50 [3] | Activity [4]
1 | O[C@@H](c1cc(C(F)(F)F)nc2c(C(F)(F)F)cccc12)[C@H]1CCCCN1 [(S,R)-MEFLOQUINE] | 100% | – | – | –
2 | O=C(CCn1c(=O)c2ccccc2n(Cc2ccccc2F)c1=O)N1CCc2ccccc2C1 | – | > 18 µM | > 24 µM | –
3 | O=C(N[C@H]1CCc2ccccc21)C1CCN(c2ncccc2-c2nc(-c3ccccc3)no2)CC1 | – | 1.11 µM | > 24 µM | –
4 | O=C(NCc1ccc2c(c1)OCO2)C1CCN(c2ncnc3onc(-c4cccc(F)c4)c23)CC1 | – | 0.98 µM | > 24 µM | –
5 | O=C(c1cccc(S(=O)(=O)N2CCc3ccccc32)c1)N1CCC(c2nnc3ccccn23)CC1 | – | > 18 µM | > 24 µM | –
6 | CC(=O)[C@]1(O)Cc2c(O)c3c(c(O)c2[C@@H](O[C@H]2C[C@H](N)[C@H](O)[C@H](C)O2)C1)C(=O)c1ccccc1C3=O [IDARUBICIN] | – | – | – | 100%
7 | Cc1nnc(-c2nn(-c3ccc(C(=O)N4CCC[C@H](C)C4)cc3)c(-c3ccc(F)cc3)c2C)o1 | – | 5.5 µM | > 24 µM | –
8 | O=C1CN(C(=O)CN2C[C@H](C(=O)N3CCCCC3)Oc3ccccc32)c2ccccc2N1 | – | > 18 µM | > 24 µM | –
9 | Cc1c(C(=O)Nc2ccc3ccc(=O)oc3c2)nnn1-c1ccc2noc(-c3ccccc3)c2c1 | – | 15.7 µM | > 24 µM | –
10 | O=C(c1ccc2noc(-c3ccccc3)c2c1)N1CCC[C@H](c2nnc3ccccn23)C1 | – | > 18 µM | > 24 µM | –
11 | c1ccc(-c2nnn3c2nc(N2CCN(Cc4ccc5c(c4)OCO5)CC2)c2ccccc23)cc1 | – | 17 µM | > 24 µM | –
12 | O=C(c1cccc(Nc2nc3ccccc3n3nnnc23)c1)N1CCc2ccccc2C1 | – | 3.44 µM | > 24 µM | –
13 | O=C(Cc1ccc2c(c1)OCO2)N1CCC(c2nc(=O)c3nnn(Cc4ccccc4F)c3[nH]2)CC1 | – | 12.7 µM | > 24 µM | –
14 | Cc1cccc(-c2nc(C3CCN(C(=O)[C@H]4CC(=O)N(c5ccc(C)c(C)c5)C4)CC3)no2)c1 | – | 12.1 µM | > 24 µM | –
